# Measurements: US9738655B2, “Tetrahydroisoquinolines containing substituted azoles as factor XIa inhibitors” (BRISTOL-MYERS SQUIBB COMPANY, priority 2013, dated 2017)
# pKi: −log10 of the molar value. Counter-ions that a name gives are not always drawn. Like-named read-outs stand apart in the source and are kept apart here.
# Tests used:
# [1] = target: purified human Factor XIa (Homo sapiens (Human), UniProt P03951); test: Factor XIa enzyme inhibition assay (chromogenic substrate S-2366)
# [2] = target: purified human plasma kallikrein (Homo sapiens (Human), UniProt P03952); test: Plasma kallikrein enzyme inhibition assay (chromogenic substrate S-2302); assay type: biochemical
# purified human plasma kallikrein, sequence (P03952 391-638): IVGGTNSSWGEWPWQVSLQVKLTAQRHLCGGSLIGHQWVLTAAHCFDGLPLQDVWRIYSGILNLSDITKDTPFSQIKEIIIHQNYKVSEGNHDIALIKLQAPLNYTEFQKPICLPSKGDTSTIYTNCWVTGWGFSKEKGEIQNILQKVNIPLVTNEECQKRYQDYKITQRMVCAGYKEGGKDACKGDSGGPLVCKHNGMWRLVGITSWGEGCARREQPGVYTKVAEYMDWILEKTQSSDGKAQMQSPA
# purified human plasma kallikrein, sequence (P03952 20-390 partner): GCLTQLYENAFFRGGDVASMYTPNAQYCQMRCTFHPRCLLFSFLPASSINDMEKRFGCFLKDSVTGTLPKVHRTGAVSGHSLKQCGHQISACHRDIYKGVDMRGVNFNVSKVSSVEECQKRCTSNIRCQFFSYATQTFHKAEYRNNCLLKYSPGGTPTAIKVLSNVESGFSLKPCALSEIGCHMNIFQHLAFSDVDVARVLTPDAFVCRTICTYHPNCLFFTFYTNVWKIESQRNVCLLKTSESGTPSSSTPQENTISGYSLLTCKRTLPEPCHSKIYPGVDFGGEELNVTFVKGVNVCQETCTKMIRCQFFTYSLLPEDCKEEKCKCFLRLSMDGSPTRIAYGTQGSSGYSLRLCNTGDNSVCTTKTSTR
# Description: The effectiveness of compounds of the present invention as inhibitors of the coagulation Factors XIa, VIIa, IXa, Xa, XIIa, plasma kallikrein or thrombin, can be determined using a relevant purified serine protease, respectively, and an appropriate synthetic substrate. The rate of hydrolysis of the chromogenic or fluorogenic substrate by the relevant serine protease was measured both in the absence and presence of compounds of the present invention. […] A decrease in the rate of absorbance or fluorescence change in the presence of inhibitor is indicative of enzyme inhibition. […] The results of this assay are expressed as the inhibitory constant, Ki.
# Values of Ki were determined by allowing the protease to react with the substrate in the presence of the inhibitor.
# The following relationships were used to calculate Ki values: (Vmax*S)/(Km+S); (vo−vs)/vs=I/(Ki(1+S/Km)) for a competitive inhibitor with one binding site; or vs/vo=A+((B−A)/1+((IC50/(I)n))); and Ki−IC50/((1+S/Km) for a competitive inhibitor where:
# [3] = read-out: Factor XIa Ki, measured at 25° C., TFA salt
# [4] = measured at 25° C. (no asterisk), TFA salt
# [5] = read-out: Factor XIa Ki, measured at 25° C.
# [6] = measured at 25° C. (no asterisk)
# purified human Factor XIa, sequence (P03951 388-625): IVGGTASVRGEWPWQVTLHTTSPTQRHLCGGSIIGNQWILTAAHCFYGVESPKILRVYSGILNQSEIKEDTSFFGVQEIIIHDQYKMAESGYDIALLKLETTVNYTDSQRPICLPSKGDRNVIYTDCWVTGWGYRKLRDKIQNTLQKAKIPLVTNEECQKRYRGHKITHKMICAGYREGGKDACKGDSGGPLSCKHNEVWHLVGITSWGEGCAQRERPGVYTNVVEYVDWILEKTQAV
# purified human Factor XIa, sequence (P03951 19-387 partner): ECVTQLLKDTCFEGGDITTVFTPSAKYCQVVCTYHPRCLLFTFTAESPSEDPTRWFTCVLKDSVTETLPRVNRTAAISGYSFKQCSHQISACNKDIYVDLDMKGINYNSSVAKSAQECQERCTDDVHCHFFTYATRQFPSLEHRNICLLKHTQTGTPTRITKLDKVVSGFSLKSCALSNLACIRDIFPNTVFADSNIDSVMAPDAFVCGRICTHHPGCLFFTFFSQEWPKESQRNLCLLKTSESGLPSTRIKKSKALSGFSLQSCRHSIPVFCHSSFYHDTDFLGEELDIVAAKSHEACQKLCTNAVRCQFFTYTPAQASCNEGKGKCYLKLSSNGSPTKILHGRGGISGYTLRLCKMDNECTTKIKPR
"pKi [1, 5]","pKi [2, 6]",SMILES,also measured
> 8.30,,"CC(C)c1nnc2n1CCN(c1cccc3c1CCN(C(=O)[C@H]1CC(c4cccc(Cl)c4F)=NO1)[C@@H]3C(=O)Nc1ccc(C(=O)O)cc1)C2 [Example 336, 4-((S)-2-((R)-3-(3-Chloro-2-fluorophenyl)-4,5-dihydroisoxazole-5-carbonyl)-5-(3-isopropyl-5,6-dihydro-[1,2,4]triazolo[4,3-a]pyrazin-7(8H)-yl)-1,2,3,4-tetrahydroisoquinoline-1-carboxamido)benzoic acid, TFA salt]",pKi ([2]; measured at 37° C. (*)): 8.85
,8.89,"O=C(O)c1ccc(NC(=O)C2c3cccc(N4CCC(N5CCCC5)CC4)c3CCN2C(=O)C2CC(c3cccc(Cl)c3)=NO2)cc1 (single isomer, unassigned) [Example 203, 4-(2-(3-(3-chlorophenyl)-4,5-dihydroisoxazole-5-carbonyl)-5-(4-(pyrrolidin-1-yl)piperidin-1-yl)-1,2,3,4-tetrahydroisoquinoline-1-carboxamido)benzoic acid, 2 TFA salt]",pKi [1]: > 8.30
6.11,6.75,"Cn1cc2c(n1)CCN(C(=O)c1cn(-c3cccc(Cl)c3F)nn1)C2C(=O)Nc1ccc(C(=O)O)cc1 (stereo not shown) [Example 220, 4-(5-(1-(3-Chloro-2-fluorophenyl)-1H-1,2,3-triazole-4-carbonyl)-2-methyl-4,5,6,7-tetrahydro-2H-pyrazolo[4,3-c]pyridine-4-carboxamido)benzoic acid]",
5.58,5.45,"CC(C)c1nnc2n1CCN(C(=O)c1cn(-c3cccc(Cl)c3F)nn1)C2C(=O)Nc1ccc(C(=O)O)cc1 (stereo not shown) [Example 223, 4-(7-(1-(3-Chloro-2-fluorophenyl)-1H-1,2,3-triazole-4-carbonyl)-3-isopropyl-5,6,7,8-tetrahydro-[1,2,4]triazolo[4,3-a]pyrazine-8-carboxamido)benzoic acid]",
,6.69,"COC1CCN(c2cccc3c2CCN(C(=O)c2cc(-c4cccc(Cl)c4F)ns2)C3C(=O)Nc2ccc(C(=O)O)cc2)CC1 (racemic) [Example 269, 4-(2-(3-(3-chloro-2-fluorophenyl)isothiazole-5-carbonyl)-5-(4-methoxypiperidin-1-yl)-1,2,3,4-tetrahydroisoquinoline-1-carboxamido)benzoic acid, TFA salt]",pKi [1]: 7.48
> 8.30,,"COC1CCN(c2cccc3c2CCN(C(=O)c2cn(-c4cccc(Cl)c4F)nn2)C3C(=O)Nc2ccc(C(N)=O)cc2)CC1 (stereo not shown) [Example 335, N-(4-Carbamoylphenyl)-2-(1-(3-chloro-2-fluorophenyl)-1H-1,2,3-triazole-4-carbonyl)-5-(4-methoxypiperidin-1-yl)-1,2,3,4-tetrahydroisoquinoline-1-carboxamide, TFA salt]",pKi ([2]; measured at 37° C. (*)): 7.01
> 8.30,8.74,"CN1CCN(c2cccc3c2CCN(C(=O)c2cn(-c4cccc(Cl)c4F)nn2)[C@@H]3C(=O)Nc2ccc(C(=O)O)cc2)CC1=O [Example 287, (S)-4-(2-(1-(3-chloro-2-fluorophenyl)-1H-1,2,3-triazole-4-carbonyl)-5-(4-methyl-3-oxopiperizin-1-yl)-1,2,3,4-tetrahydroisoquinoline-1-carboxamido)benzoic acid, TFA salt]",

# The remaining lines, values behind:
SMILES,"pKi [1, 5]","pKi [2, 6]",also measured
"COC1CCN(c2cccc3c2CCN(C(=O)C2(C)CC(c4cccc(Cl)c4F)=NO2)C3C(=O)Nc2ccc(C(=O)O)cc2)CC1 (stereo not shown) [Example 267, 4-(2-(3-(3-chloro-2-fluorophenyl)-5-methyl-4,5-dihydroisoxazole-5-carbonyl)-5-(4-methoxypiperidin-1-yl)-1,2,3,4-tetrahydroisoquinoline-1-carboxamido)benzoic acid, TFA salt]",,,"pKi [1, 3]: 6.99; pKi [2, 4]: 6.45"
"CNC(=O)c1ccc(-c2cccc3c2CCN(C(=O)c2cn(-c4cccc(Cl)c4F)nn2)C3C(=O)Nc2ccc(CC(=O)O)cc2)cn1 (stereo not shown) [Example 117, 2-(4-(2-(1-(3-Chloro-2-fluorophenyl)-1H-1,2,3-triazole-4-carbonyl)-5-(6-(methylcarbamoyl)pyridin-3-yl)-1,2,3,4-tetrahydroisoquinoline-1-carboxamido)phenyl)acetic acid, TFA salt]",> 8.30,7.79,
"O=C1CCC2(CCN(c3cccc4c3CCN(C(=O)c3cnn(-c5cccc(Cl)c5F)c3)C4C(=O)Nc3ccc(C(=O)O)cc3)CC2)O1 (stereo not shown) [Example 75, 4-(2-(1-(3-chloro-2-fluorophenyl)-1H-pyrazole-4-carbonyl)-5-(2-oxo-1-oxa-8-azaspiro[4.5]-decan-8-yl)-1,2,3,4-tetrahydroisoquinoline-1-carboxamido)benzoic acid, TFA salt]",> 8.30,7.59,
"COC1CCN(c2cccc3c2CCN(C(=O)[C@H]2CC(c4cccc(Cl)c4F)=NO2)[C@H]3C(=O)Nc2ccccc2F)CC1 (single isomer, unassigned) [Example 236, TFA salt]",,,pKi [1]: 6.34; pKi ([2]; measured at 37° C. (*)): < 5.36
"COC1CN(c2cccc3c2CCN(C(=O)c2cn(-c4cccc(Cl)c4F)nn2)C3C(=O)Nc2ccc(C(=O)O)cc2)C1 (stereo not shown) [Example 83, 4-(2-(1-(3-chloro-2-fluorophenyl)-1H-1,2,3-triazole-4-carbonyl)-5-(3-methoxyazetidin-1-yl)-1,2,3,4-tetrahydroisoquinoline-1-carboxamido)benzoic acid, TFA salt]",> 8.30,7.92,
"CN(C)C1CCN(c2cccc3c2CCN(C(=O)c2cn(-c4cccc(Cl)c4F)nn2)[C@@H]3C(=O)Nc2ccc(C(N)=O)cc2)CC1 [Example 101, (S)-N-(4-Carbamoylphenyl)-2-(1-(3-chloro-2-fluorophenyl)-1H-1,2,3-triazole-4-carbonyl)-5-(4-(dimethylamino)piperidin-1-yl)-1,2,3,4-tetrahydroisoquinoline-1-carboxamide, bis-TFA salt]",> 8.30,8.76,
"CN1CCN(c2cccc3c2CCN(C(=O)c2cn(-c4cccc(Cl)c4)nc2C(F)(F)F)C3C(=O)Nc2ccc(C(=O)O)cc2)CC1 (stereo not shown) [Example 199, 4-(2-(1-(3-chlorophenyl)-3-(trifluoromethyl)-1H-pyrazole-4-carbonyl)-5-(4-methylpiperazin-1-yl)-1,2,3,4-tetrahydroisoquinoline-1-carboxamido)benzoic acid, 2 TFA salt]",5.64,,pKi ([2]; measured at 37° C. (*)): < 5.22
"COc1cncc(-c2cccc3c2CCN(C(=O)c2cn(-c4cccc(Cl)c4F)nn2)C3C(=O)Nc2ccc(C(=O)O)cc2)c1 (stereo not shown) [Example 36, 4-(2-(1-(3-chloro-2-fluorophenyl)-1H-1,2,3-triazole-4-carbonyl)-5-(5-methoxypyridin-3-yl)-1,2,3,4-tetrahydroisoquinoline-1-carboxamido)benzoic acid, TFA salt]",> 8.30,7.57,
"CN1CCN(c2cccc3c2CCN(C(=O)C2CC(c4cccc(Cl)c4F)=NO2)C3C(=O)Nc2ccc(C(=O)O)cc2)CC1=O (single isomer, unassigned) [Example 282, 4-(2-(3-(3-chloro-2-fluorophenyl)-4,5-dihydroisoxazole-5-carbonyl)-5-(4-methyl-3-oxopiperazin-1-yl)-1,2,3,4-tetrahydroisoquinoline-1-carboxamido)benzoic acid, TFA salt]",,,"pKi [1, 3]: > 8.30; pKi [2, 4]: 8.73"
"CN(C)C1CCN(c2cccc3c2CCN(C(=O)c2cn(-c4cccc(Cl)c4F)cn2)C3C(=O)Nc2ccc(C(=O)O)cc2)CC1 (stereo not shown) [Example 53, 4-(2-(1-(3-chloro-2-fluorophenyl)-1H-imidazole-4-carbonyl)-5-(4-(dimethylamino)piperidin-1-yl)-1,2,3,4-tetrahydroisoquinoline-1-carboxamido)benzoic acid, bis-TFA salt]",> 8.30,8.92,
"CC(C)c1nnc2n1CCN(c1cccc3c1CCN(C(=O)c1cn(-c4cccc(Cl)c4F)nn1)[C@H]3C(=O)Nc1ccc(C(=O)O)cc1)C2 [Example 65, (R)-4-(2-(1-(3-chloro-2-fluorophenyl)-1H-1,2,3-triazole-4-carbonyl)-5-(3-isopropyl-5,6-dihydro-[1,2,4]triazolo[4,3-a]pyrazin-7(8H)-yl)-1,2,3,4-tetrahydroisoquinoline-1-carboximido)benzoic acid, TFA salt]",7.72,6.59,
"N#Cc1ncc(-c2cccc3c2CCN(C(=O)c2cn(-c4cccc(Cl)c4F)nn2)C3C(=O)Nc2ccc(C(=O)O)cc2)cn1 (stereo not shown) [Example 32, 4-(2-(1-(3-chloro-2-fluorophenyl)-1H-1,2,3-triazole-4-carbonyl)-5-(2-cyanopyrimidin-5-yl)-1,2,3,4-tetrahydroisoquinoline-1-carboxamido)benzoic acid]",,7.76,pKi [1]: > 8.30
"CC(C)(O)C1CCN(c2cccc3c2CCN(C(=O)C2CC(c4cccc(Cl)c4F)=NO2)C3C(=O)Nc2ccc(C(=O)O)cc2)CC1 (stereo not shown) [Example 262, 4-(2-(3-(3-chloro-2-fluorophenyl)-4,5-dihydroisoxazole-5-carbonyl)-5-(4-(2-hydroxypropan-2-yl)piperidin-1-yl)-1,2,3,4-tetrahydroisoquinoline-1-carboxamido)benzoic acid, TFA salt]",,,"pKi [1, 3]: > 8.30; pKi [2, 4]: 8.36"
"O=C(O)c1ccc(NC(=O)C2c3cccc(N4CC[C@H](O)C4=O)c3CCN2C(=O)c2cn(-c3cccc(Cl)c3F)nn2)cc1 (stereo partly drawn) [Example 196, 4-(2-(1-(3-Chloro-2-fluorophenyl)-1H-1,2,3-triazole-4-carbonyl)-5-((S)-3-hydroxy-2-oxopyrrolidin-1-yl)-1,2,3,4-tetrahydroisoquinoline-1-carboxamido)benzoic acid, TFA salt]",8.15,7.92,
"CN(C)C1CCN(c2cccc3c2CCN(C(=O)c2cn(-c4cccc(Cl)c4F)cn2)[C@H]3C(=O)Nc2ccc(C(=O)O)cc2)CC1 (single isomer, unassigned) [Example 54, bis-TFA salt]",8.05,7.30,
"O=C(O)c1ccc(NC(=O)C2c3cccc(N4CCC(N5CCCC5=O)CC4)c3CCN2C(=O)c2cn(-c3cccc(Cl)c3F)nn2)cc1 (stereo not shown) [Example 72, 4-(2-(1-(3-chloro-2-fluorophenyl)-1H-1,2,3-triazole-4-carbonyl)-5-(4-(2-oxopyrrolidin-1-yl)piperidin-1-yl)-1,2,3,4-tetrahydroisoquinoline-1-carboxamido)benzoic acid, TFA salt]",> 8.30,7.86,
